Assay results published in ChEMBL document CHEMBL1201862, “PubChem BioAssay data set” (2004).
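Following 48 hours of exposure in 96-well plates, responses at five concentrations were used to interpolate endpoints linearly. At the GI50, growth is halved.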 The source made the active and inactive calls. Rule as the data show it: active = GI50 up to about 1.1 µM and inactive = higher.

How the values were obtained:
Experiment in all cases: inhibition of tumour cell growth, NCI panel, 48 h
OVCAR-4 = test system: OVCAR-4
MDA-MB-435 = test system: MDA-MB-435
SNB-75 = test system: SNB-75
A498 = test system: A498
SF-295 = test system: SF-295
NCI-H460 = test system: NCI-H460
EKVX = test system: EKVX
Malme-3M = test system: Malme-3M
NCI/ADR-RES = test system: NCI/ADR-RES
SR = test system: SR
NCI-H226 = test system: NCI-H226
OVCAR-8 = test system: OVCAR-8
CCRF-CEM = test system: CCRF-CEM
MDA-MB-231 = test system: MDA-MB-231
SK-OV-3 = test system: SK-OV-3
UACC-62 = test system: UACC-62
NCI-H522 = test system: NCI-H522
HOP-62 = test system: HOP-62
MDA-N = test system: MDA-N
SK-MEL-28 = test system: SK-MEL-28
COLO 205 = test system: COLO 205
786-0 = test system: 786-0
HCT-15 = test system: HCT-15
SK-MEL-5 = test system: SK-MEL-5
BT-549 = test system: BT-549
U-251 = test system: U-251
T47D = test system: T47D
SW-620 = test system: SW-620
K562 = test system: K562
SN12C = test system: SN12C
CAKI-1 = test system: CAKI-1
HOP-92 = test system: HOP-92
SF-268 = test system: SF-268
HT-29 = test system: HT-29
TK-10 = test system: TK-10
ACHN = test system: ACHN
HCT-116 = test system: HCT-116
UO-31 = test system: UO-31
OVCAR-3 = test system: OVCAR-3
MOLT-4 = test system: MOLT-4
LOX IMVI = test system: LOX IMVI
UACC-257 = test system: UACC-257
IGROV-1 = test system: IGROV-1
M14 = test system: M14
KM12 = test system: KM12
HCC 2998 = test system: HCC 2998
OVCAR-5 = test system: OVCAR-5
NCI-H23 = test system: NCI-H23
SNB-19 = test system: SNB-19
MCF7 = test system: MCF7
SF-539 = test system: SF-539
A549 = test system: A549
PC-3 = test system: PC-3
Hs-578T = test system: Hs-578T
DU-145 = test system: DU-145
RPMI-8226 = test system: RPMI-8226
RXF 393 = test system: RXF 393
HL-60 = test system: HL-60
SK-MEL-2 = test system: SK-MEL-2

Q: With OC(Cc1ccc2ccccc2n1)(C(F)(F)Cl)C(F)(F)Cl as the compound, how does the GI50 (OVCAR-4) read?
A: > 10 µM (inactive)

Q: What about the GI50 (MDA-MB-435) of the same compound?
A: > 10 µM (inactive)

Q: And the GI50 (SNB-75)?
A: > 10 µM (inactive)

Q: And the GI50 (A498)?
A: > 10 µM (inactive)

Q: And the GI50 (SF-295)?
A: > 10 µM (inactive)

Q: And the GI50 (NCI-H460)?
A: > 10 µM (inactive)

Q: And the GI50 (EKVX)?
A: > 10 µM (inactive)

Q: And the GI50 (Malme-3M)?
A: > 10 µM (inactive)

Q: What about the GI50 (NCI/ADR-RES) of the same compound?
A: > 10 µM (inactive)

Q: What about the GI50 (SR) of the same compound?
A: > 10 µM (inactive)

Q: And the GI50 (NCI-H226)?
A: > 10 µM (inactive)

Q: And the GI50 (OVCAR-8)?
A: > 10 µM (inactive)

Q: What about the GI50 (CCRF-CEM) of the same compound?
A: > 10 µM (inactive)

Q: What about the GI50 (MDA-MB-231) of the same compound?
A: > 10 µM (inactive)

Q: And the GI50 (SK-OV-3)?
A: > 10 µM (inactive)

Q: What about the GI50 (UACC-62) of the same compound?
A: > 10 µM (inactive)

Q: And the GI50 (NCI-H522)?
A: > 10 µM (inactive)

Q: What about the GI50 (HOP-62) of the same compound?
A: > 10 µM (inactive)

Q: What about the GI50 (MDA-N) of the same compound?
A: > 10 µM (inactive)

Q: What about the GI50 (SK-MEL-28) of the same compound?
A: > 10 µM (inactive)

Q: What about the GI50 (COLO 205) of the same compound?
A: > 10 µM (inactive)

Q: What about the GI50 (786-0) of the same compound?
A: > 10 µM (inactive)

Q: What about the GI50 (HCT-15) of the same compound?
A: > 10 µM

Q: What about the GI50 (SK-MEL-5) of the same compound?
A: > 10 µM (inactive)

Q: What about the GI50 (BT-549) of the same compound?
A: > 10 µM (inactive)

Q: What about the GI50 (U-251) of the same compound?
A: > 10 µM (inactive)

Q: And the GI50 (T47D)?
A: > 10 µM (inactive)

Q: What about the GI50 (SW-620) of the same compound?
A: > 10 µM (inactive)

Q: What about the GI50 (K562) of the same compound?
A: > 10 µM (inactive)

Q: What about the GI50 (SN12C) of the same compound?
A: > 10 µM (inactive)

Q: What about the GI50 (CAKI-1) of the same compound?
A: > 10 µM (inactive)

Q: What about the GI50 (HOP-92) of the same compound?
A: > 10 µM (inactive)

Q: And the GI50 (SF-268)?
A: > 10 µM (inactive)

Q: What about the GI50 (HT-29) of the same compound?
A: > 10 µM (inactive)

Q: What about the GI50 (TK-10) of the same compound?
A: > 10 µM (inactive)

Q: And the GI50 (ACHN)?
A: > 10 µM (inactive)

Q: What about the GI50 (HCT-116) of the same compound?
A: > 10 µM (inactive)

Q: And the GI50 (UO-31)?
A: > 10 µM (inactive)

Q: What about the GI50 (OVCAR-3) of the same compound?
A: > 10 µM (inactive)

Q: What about the GI50 (MOLT-4) of the same compound?
A: > 10 µM (inactive)

Q: What about the GI50 (LOX IMVI) of the same compound?
A: > 10 µM (inactive)

Q: And the GI50 (UACC-257)?
A: > 10 µM (inactive)

Q: And the GI50 (IGROV-1)?
A: > 10 µM (inactive)

Q: What about the GI50 (M14) of the same compound?
A: > 10 µM (inactive)

Q: What about the GI50 (KM12) of the same compound?
A: > 10 µM (inactive)

Q: What about the GI50 (HCC 2998) of the same compound?
A: > 10 µM (inactive)

Q: And the GI50 (OVCAR-5)?
A: > 10 µM (inactive)

Q: What about the GI50 (NCI-H23) of the same compound?
A: > 10 µM (inactive)

Q: What about the GI50 (SNB-19) of the same compound?
A: > 10 µM (inactive)

Q: What about the GI50 (MCF7) of the same compound?
A: > 10 µM (inactive)

Q: And the GI50 (SF-539)?
A: > 10 µM (inactive)

Q: What about the GI50 (A549) of the same compound?
A: > 10 µM (inactive)

Q: What about the GI50 (PC-3) of the same compound?
A: > 10 µM (inactive)

Q: What about the GI50 (Hs-578T) of the same compound?
A: > 10 µM (inactive)

Q: What about the GI50 (DU-145) of the same compound?
A: > 10 µM (inactive)

Q: For CC1(c2nc3ccccc3[nH]2)CCC(C(=O)O)C(C)(C)O1 (configuration not stated), which GI50 (OVCAR-4) is on record?
A: > 100 µM (inactive)

Q: What about the GI50 (MDA-MB-435) of the same compound?
A: > 100 µM (inactive)

Q: And the GI50 (SNB-75)?
A: 39.8 µM (inactive)

Q: What about the GI50 (RPMI-8226) of the same compound?
A: > 100 µM (inactive)

Q: What about the GI50 (SF-295) of the same compound?
A: > 100 µM (inactive)

Q: And the GI50 (RXF 393)?
A: > 100 µM (inactive)

Q: And the GI50 (EKVX)?
A: > 100 µM (inactive)

Q: And the GI50 (Malme-3M)?
A: > 100 µM (inactive)

Q: And the GI50 (NCI/ADR-RES)?
A: > 100 µM (inactive)

Q: And the GI50 (SR)?
A: > 100 µM (inactive)

Q: What about the GI50 (NCI-H226) of the same compound?
A: > 100 µM (inactive)

Q: And the GI50 (OVCAR-8)?
A: > 100 µM (inactive)

Q: What about the GI50 (CCRF-CEM) of the same compound?
A: > 100 µM (inactive)

Q: And the GI50 (MDA-MB-231)?
A: > 100 µM (inactive)

Q: What about the GI50 (SK-OV-3) of the same compound?
A: > 100 µM (inactive)

Q: What about the GI50 (UACC-62) of the same compound?
A: > 100 µM (inactive)

Q: And the GI50 (NCI-H522)?
A: > 100 µM (inactive)

Q: What about the GI50 (HOP-62) of the same compound?
A: > 100 µM (inactive)

Q: What about the GI50 (MDA-N) of the same compound?
A: > 100 µM (inactive)

Q: And the GI50 (SK-MEL-28)?
A: > 100 µM (inactive)

Q: And the GI50 (COLO 205)?
A: > 100 µM (inactive)

Q: What about the GI50 (786-0) of the same compound?
A: > 100 µM (inactive)

Q: What about the GI50 (HCT-15) of the same compound?
A: > 100 µM

Q: What about the GI50 (SK-MEL-5) of the same compound?
A: > 100 µM (inactive)

Q: What about the GI50 (BT-549) of the same compound?
A: > 100 µM (inactive)

Q: What about the GI50 (U-251) of the same compound?
A: > 100 µM (inactive)

Q: And the GI50 (T47D)?
A: > 100 µM (inactive)

Q: What about the GI50 (SW-620) of the same compound?
A: > 100 µM (inactive)

Q: And the GI50 (K562)?
A: > 100 µM (inactive)

Q: And the GI50 (SN12C)?
A: > 100 µM (inactive)

Q: And the GI50 (CAKI-1)?
A: > 100 µM (inactive)

Q: What about the GI50 (HOP-92) of the same compound?
A: > 100 µM (inactive)

Q: What about the GI50 (SF-268) of the same compound?
A: > 100 µM (inactive)

Q: And the GI50 (HT-29)?
A: > 100 µM (inactive)

Q: And the GI50 (TK-10)?
A: > 100 µM (inactive)

Q: And the GI50 (HL-60)?
A: > 100 µM (inactive)

Q: And the GI50 (ACHN)?
A: > 100 µM (inactive)

Q: What about the GI50 (HCT-116) of the same compound?
A: > 100 µM (inactive)

Q: And the GI50 (UO-31)?
A: > 100 µM (inactive)

Q: And the GI50 (OVCAR-3)?
A: > 100 µM (inactive)

Q: What about the GI50 (MOLT-4) of the same compound?
A: > 100 µM (inactive)

Q: And the GI50 (LOX IMVI)?
A: > 100 µM (inactive)

Q: And the GI50 (UACC-257)?
A: > 100 µM (inactive)

Q: And the GI50 (IGROV-1)?
A: > 100 µM (inactive)

Q: And the GI50 (M14)?
A: > 100 µM (inactive)

Q: What about the GI50 (KM12) of the same compound?
A: 26.5 µM (inactive)

Q: What about the GI50 (HCC 2998) of the same compound?
A: > 100 µM (inactive)

Q: What about the GI50 (OVCAR-5) of the same compound?
A: > 100 µM (inactive)

Q: And the GI50 (NCI-H23)?
A: > 100 µM (inactive)

Q: And the GI50 (SNB-19)?
A: > 100 µM (inactive)

Q: And the GI50 (MCF7)?
A: > 100 µM (inactive)

Q: And the GI50 (SF-539)?
A: > 100 µM (inactive)

Q: And the GI50 (A549)?
A: > 100 µM (inactive)

Q: What about the GI50 (PC-3) of the same compound?
A: > 100 µM (inactive)

Q: And the GI50 (Hs-578T)?
A: > 100 µM (inactive)

Q: What about the GI50 (SK-MEL-2) of the same compound?
A: > 100 µM (inactive)

Q: What about the GI50 (DU-145) of the same compound?
A: > 100 µM (inactive)
